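1) Cells in 96-well plates. 2) Compound, 48 h, 5 concentrations. 3) Linear interpolation between surrounding doses. 4) Unreached endpoint = highest concentration. Here, GI50 denotes the concentration required for 50% inhibition of growth. Definition used: TGI = concentration required for complete inhibition of growth.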
Legend:
Assay in all cases: NCI tumour cell line growth inhibition, 48 h
HT29 colon = system: HT29 colon
CAKI-1 renal = system: CAKI-1 renal
SW-620 colon = system: SW-620 colon
UACC-62 melanoma = system: UACC-62 melanoma
LOX IMVI melanoma = system: LOX IMVI melanoma
A498 renal = system: A498 renal
HOP-62 NSCLC = system: HOP-62 NSCLC
SN12C renal = system: SN12C renal
OVCAR-4 ovarian = system: OVCAR-4 ovarian
SNB-19 CNS = system: SNB-19 CNS
HCT-15 colon = system: HCT-15 colon
MOLT-4 leukemia = system: MOLT-4 leukemia
MDA-MB-435 = system: MDA-MB-435
CCRF-CEM leukemia = system: CCRF-CEM leukemia
HOP-92 NSCLC = system: HOP-92 NSCLC
NCI/ADR-RES ovarian = system: NCI/ADR-RES ovarian
NCI-H460 lung = system: NCI-H460 lung
SNB-75 CNS = system: SNB-75 CNS
UACC-257 melanoma = system: UACC-257 melanoma
SF-295 CNS = system: SF-295 CNS
MALME-3M melanoma = system: MALME-3M melanoma
PC-3 prostate = system: PC-3 prostate
SF-539 CNS = system: SF-539 CNS
U251 CNS = system: U251 CNS
T-47D breast = system: T-47D breast
SK-OV-3 ovarian = system: SK-OV-3 ovarian
HCC-2998 colon = system: HCC-2998 colon
IGROV1 ovarian = system: IGROV1 ovarian
MDA-MB-231 breast = system: MDA-MB-231 breast
HS 578T breast = system: HS 578T breast
HCT-116 colon = system: HCT-116 colon
NCI-H226 lung = system: NCI-H226 lung
786-0 renal = system: 786-0 renal
SF-268 CNS = system: SF-268 CNS
DU-145 prostate = system: DU-145 prostate
COLO 205 colon = system: COLO 205 colon
KM12 colon = system: KM12 colon
SK-MEL-2 melanoma = system: SK-MEL-2 melanoma
A549 NSCLC = system: A549 NSCLC
NCI-H23 lung = system: NCI-H23 lung
UO-31 renal = system: UO-31 renal
OVCAR-8 ovarian = system: OVCAR-8 ovarian
TK-10 renal = system: TK-10 renal
BT-549 breast = system: BT-549 breast
M14 melanoma = system: M14 melanoma
OVCAR-3 ovarian = system: OVCAR-3 ovarian
HL-60(TB) leukemia = system: HL-60(TB) leukemia
NCI-H522 lung = system: NCI-H522 lung
MDA-N = system: MDA-N
MCF7 breast = system: MCF7 breast
EKVX NSCLC = system: EKVX NSCLC
RXF 393 renal = system: RXF 393 renal
ACHN renal = system: ACHN renal
RPMI-8226 leukemia = system: RPMI-8226 leukemia
OVCAR-5 ovarian = system: OVCAR-5 ovarian
SK-MEL-5 melanoma = system: SK-MEL-5 melanoma
K-562 leukemia = system: K-562 leukemia
SK-MEL-28 melanoma = system: SK-MEL-28 melanoma

With `Cc1ccc(-c2cc3c4c(nc5ccccc53)C(=O)c3cccnc3-c4n2)cc1` the GI50 (HT29 colon) was 8.75 µM, the TGI (HT29 colon) was 22.8 µM and the GI50 (CAKI-1 renal) was 29.7 µM. The TGI (CAKI-1 renal) was over 100 µM, the GI50 (SW-620 colon) was 5.7 µM and the TGI (SW-620 colon) was over 51.1 µM. The GI50 (UACC-62 melanoma) was 16 µM, the TGI (UACC-62 melanoma) was 31.1 µM and the GI50 (LOX IMVI melanoma) was 3.4 µM. The TGI (LOX IMVI melanoma) was 14.5 µM, the GI50 (A498 renal) was 11.8 µM and the TGI (A498 renal) was 32.7 µM. The GI50 (HOP-62 NSCLC) was 15.7 µM, the TGI (HOP-62 NSCLC) was 37.5 µM and the GI50 (SN12C renal) was 14.4 µM. It also gave a TGI (SN12C renal) of 30 µM, a GI50 (OVCAR-4 ovarian) of 15.6 µM and a TGI (OVCAR-4 ovarian) of 73.8 µM. The GI50 (SNB-19 CNS) was 13.2 µM, the TGI (SNB-19 CNS) was 60.9 µM and the GI50 (HCT-15 colon) was 12.7 µM. For the same compound, the TGI (HCT-15 colon) was 49.9 µM, the GI50 (MOLT-4 leukemia) was 0.583 µM and the TGI (MOLT-4 leukemia) was over 100 µM. For the same compound, the GI50 (MDA-MB-435) was 5.08 µM, the TGI (MDA-MB-435) was 16 µM and the GI50 (CCRF-CEM leukemia) was 8.04 µM. The TGI (CCRF-CEM leukemia) was over 100 µM, the GI50 (HOP-92 NSCLC) was 26.5 µM and the TGI (HOP-92 NSCLC) was over 100 µM. The GI50 (NCI/ADR-RES ovarian) was 14.3 µM, the TGI (NCI/ADR-RES ovarian) was 49.7 µM and the GI50 (NCI-H460 lung) was 3.14 µM. For the same compound, the TGI (NCI-H460 lung) was 16.4 µM, the GI50 (SNB-75 CNS) was 13.1 µM and the TGI (SNB-75 CNS) was over 53.6 µM. The GI50 (UACC-257 melanoma) was 6.01 µM, the TGI (UACC-257 melanoma) was 20.8 µM and the GI50 (SF-295 CNS) was 12.4 µM. It also gave a TGI (SF-295 CNS) of 25.7 µM, a GI50 (MALME-3M melanoma) of 17.8 µM and a TGI (MALME-3M melanoma) of 32.6 µM. The GI50 (PC-3 prostate) was 17.3 µM, the TGI (PC-3 prostate) was over 83.8 µM and the GI50 (SF-539 CNS) was 6.68 µM. It also gave a TGI (SF-539 CNS) of 26.7 µM, a GI50 (U251 CNS) of 9.51 µM and a TGI (U251 CNS) of over 66.9 µM. It also gave a GI50 (T-47D breast) of 22.7 µM, a TGI (T-47D breast) of 99.4 µM and a GI50 (SK-OV-3 ovarian) of 34.7 µM. The TGI (SK-OV-3 ovarian) was over 94.4 µM, the GI50 (HCC-2998 colon) was 17.2 µM and the TGI (HCC-2998 colon) was 33.2 µM. It also gave a GI50 (IGROV1 ovarian) of 10.7 µM, a TGI (IGROV1 ovarian) of 55.4 µM and a GI50 (MDA-MB-231 breast) of 16.8 µM. The TGI (MDA-MB-231 breast) was over 69.9 µM, the GI50 (HS 578T breast) was 18.3 µM and the TGI (HS 578T breast) was 43.8 µM. It also gave a GI50 (HCT-116 colon) of 7.65 µM, a TGI (HCT-116 colon) of 22.8 µM and a GI50 (NCI-H226 lung) of 56.4 µM. For the same compound, the TGI (NCI-H226 lung) was over 100 µM, the GI50 (786-0 renal) was 18.2 µM and the TGI (786-0 renal) was 52.5 µM. It also gave a GI50 (SF-268 CNS) of 17 µM, a TGI (SF-268 CNS) of 61.1 µM and a GI50 (DU-145 prostate) of 11.9 µM. For the same compound, the TGI (DU-145 prostate) was 24.5 µM, the GI50 (COLO 205 colon) was 16.3 µM and the TGI (COLO 205 colon) was 30.1 µM. The GI50 (KM12 colon) was 6.46 µM, the TGI (KM12 colon) was 25.7 µM and the GI50 (SK-MEL-2 melanoma) was 15 µM. The TGI (SK-MEL-2 melanoma) was 38 µM, the GI50 (A549 NSCLC) was 4.02 µM and the TGI (A549 NSCLC) was 16.2 µM. For the same compound, the GI50 (NCI-H23 lung) was 7.03 µM, the TGI (NCI-H23 lung) was 20.9 µM and the GI50 (UO-31 renal) was 17.1 µM. It also gave a TGI (UO-31 renal) of over 82.6 µM, a GI50 (OVCAR-8 ovarian) of 11.4 µM and a TGI (OVCAR-8 ovarian) of 37.6 µM. The GI50 (TK-10 renal) was 26.4 µM, the TGI (TK-10 renal) was 97.3 µM and the GI50 (BT-549 breast) was 17.4 µM. The TGI (BT-549 breast) was 41 µM, the GI50 (M14 melanoma) was 4.37 µM and the TGI (M14 melanoma) was 16.5 µM. The GI50 (OVCAR-3 ovarian) was 1.85 µM, the TGI (OVCAR-3 ovarian) was over 50.1 µM and the GI50 (HL-60(TB) leukemia) was 1.35 µM. The TGI (HL-60(TB) leukemia) was over 100 µM, the GI50 (NCI-H522 lung) was 5.55 µM and the TGI (NCI-H522 lung) was 21.9 µM. For the same compound, the GI50 (MDA-N) was 3.27 µM, the TGI (MDA-N) was 10.3 µM and the GI50 (MCF7 breast) was 1.85 µM. The TGI (MCF7 breast) was 6.31 µM, the GI50 (EKVX NSCLC) was 23.4 µM and the TGI (EKVX NSCLC) was 59.1 µM. The GI50 (RXF 393 renal) was 9.58 µM, the TGI (RXF 393 renal) was over 100 µM and the GI50 (ACHN renal) was 22.5 µM. It also gave a TGI (ACHN renal) of 80.6 µM, a GI50 (RPMI-8226 leukemia) of 4.18 µM and a TGI (RPMI-8226 leukemia) of 54.9 µM. The GI50 (OVCAR-5 ovarian) was 23 µM, the TGI (OVCAR-5 ovarian) was 60.9 µM and the GI50 (SK-MEL-5 melanoma) was 1.67 µM. For the same compound, the TGI (SK-MEL-5 melanoma) was 3.89 µM, the GI50 (K-562 leukemia) was 0.39 µM and the TGI (K-562 leukemia) was over 100 µM. The GI50 (SK-MEL-28 melanoma) was 19.1 µM and the TGI (SK-MEL-28 melanoma) was 41.1 µM.
